In the NIST ThermoML archive (doi:10.1021/je900048r):
“And” between values parts separate entries of the source, which are not always exact repeats. Equal values may be shown once.

Tests used:
[1] = Liquid, Other PVT measurement
[2] = xn = mol fraction of the nth substance listed; conditions: Liquid, Other PVT measurement, x2 = 0

CCO [ethanol]
mass density [kg/m3], [1]
Conditions	200 kPa	600 kPa	1000 kPa	1400 kPa	1800 kPa	2000 kPa
313.15 K	770	770	770	771	771	772
353.15 K	734	734	735	735	736	738
393.15 K	–	691	692	693	694	694
433.15 K	–	–	–	638	639	639

CC#N [acetonitrile] + CCCCn1cc[n+](C)c1.F[B-](F)(F)F
mass density [kg/m3], [2]
Conditions	200 kPa	600 kPa	1000 kPa	1400 kPa	1800 kPa	2000 kPa
313.15 K	755	755	756	756	757	757
353.15 K	710	711	711	711	712	713
393.15 K	–	664	664	665	666	666
433.15 K	–	–	611	612	614	614
473.15 K	–	–	–	–	550	552

CCO [ethanol] + CCCCn1cc[n+](C)c1.F[B-](F)(F)F
mass density [kg/m3], [2]
Conditions	200 kPa	600 kPa	1000 kPa	1400 kPa	1800 kPa	2000 kPa
313.15 K	770	770	770	771	771	772
353.15 K	734	734	735	735	736	738
393.15 K	–	691	692	693	694	694
433.15 K	–	–	–	638	639	639

O [water]
[1]
Conditions	mass density [kg/m3]
313.15 K, 200 kPa	993
313.15 K, 2000 kPa	995
353.15 K, 200 kPa	975
353.15 K, 400 kPa	975
373.15 K, 800 kPa	963
373.15 K, 1200 kPa	963
393.15 K, 200 kPa	949
393.15 K, 400 kPa	949
393.15 K, 1600 kPa	950
393.15 K, 2000 kPa	950
433.15 K, 800 kPa	912
433.15 K, 1200 kPa	912
473.15 K, 1600 kPa	871
473.15 K, 2000 kPa	871

CCCCn1cc[n+](C)c1.F[B-](F)(F)F [1-butyl-3-methylimidazolium tetrafluoroborate]
mass density, [1]
Conditions	100 kPa	200 kPa	600 kPa	1000 kPa	1400 kPa	1800 kPa	2000 kPa
293.15 K	1198 kg/m3	–	–	–	–	–	–
313.15 K	1183 kg/m3	1185 kg/m3	1186 kg/m3	1186 kg/m3	1186 kg/m3	1187 kg/m3	1186.93 kg/m3 and 1187 kg/m3
353.15 K	–	1159 kg/m3	1160 kg/m3	1160 kg/m3	1160 kg/m3	1161 kg/m3	1160.82 kg/m3 and 1161 kg/m3
393.15 K	–	–	1135 kg/m3	1135 kg/m3	1135 kg/m3	1136 kg/m3	1135.92 kg/m3 and 1136 kg/m3
433.15 K	–	–	–	1112 kg/m3	1112 kg/m3	1113 kg/m3	1113 kg/m3
473.15 K	–	–	–	–	–	1086 kg/m3	1087 kg/m3

CC#N [acetonitrile]
mass density [kg/m3], [1]
Conditions	200 kPa	600 kPa	1000 kPa	1400 kPa	1800 kPa	2000 kPa
313.15 K	755	755	756	756	757	757
353.15 K	710	711	711	711	712	713
393.15 K	–	664	664	665	666	666
433.15 K	–	–	611	612	614	614
473.15 K	–	–	–	–	550	552
